Laboratory results: ChEMBL document CHEMBL1201862, “PubChem BioAssay data set” (2004)
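Grown in 96-well plates, cells were treated for 48 hours with each compound at five concentrations. Insufficient inhibition: endpoint recorded as highest concentration tested. The concentration for 50% growth inhibition is given as GI50.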 Activity calls are given as the source filed them. Cut-off read from the data, not from the text of the source: active = GI50 up to about 1.1 µM and inactive = higher.

Columns and labels:
Assay in all cases: NCI-60 cell line screen, 48 h
[1] = system: NCI-H522
[2] = system: LOX IMVI
[3] = system: NCI/ADR-RES
[4] = system: BT-549
[5] = system: SW-620
[6] = system: MOLT-4
[7] = system: SK-MEL-5
[8] = system: PC-3
[9] = system: OVCAR-5
[10] = system: COLO 205
[11] = system: A549
[12] = system: CAKI-1
[13] = system: HL-60
[14] = system: MDA-N
[15] = system: NCI-H23
[16] = system: EKVX
[17] = system: RPMI-8226
[18] = system: UACC-257
[19] = system: T47D
[20] = system: SR

| Structure (SMILES) | GI50 [1] | GI50 [2] | GI50 [3] | GI50 [4] | GI50 [5] | GI50 [6] | GI50 [7] | GI50 [8] | GI50 [9] | GI50 [10] | GI50 [11] | GI50 [12] | GI50 [13] | GI50 [14] | GI50 [15] | GI50 [16] | GI50 [17] | GI50 [18] | GI50 [19] | GI50 [20] |
| --- | --- | --- | --- | --- | --- | --- | --- | --- | --- | --- | --- | --- | --- | --- | --- | --- | --- | --- | --- | --- |
| CC(=O)O[C@H]1C[C@H](O[C@H]2[C@@H](O)C[C@H](O[C@H]3[C@@H](O)C[C@H](O[C@H]4CC[C@@]5(C)[C@H](CC[C@@H]6[C@@H]5CC[C@]5(C)[C@@H](C7=CC(=O)OC7)CC[C@]65O)C4)O[C@@H]3C)O[C@@H]2C)O[C@H](C)[C@H]1O[C@@H]1O[C@H](CO)[C@@H](O)[C@H](O)[C@H]1O | < 0.01 µM (active) | < 0.0159 µM (active) | < 0.0169 µM (active) | < 0.0167 µM (active) | 0.0202 µM (active) | > 100 µM (inactive) | 0.0237 µM (active) | 0.0152 µM (active) | 0.0342 µM (active) | 0.0491 µM (active) | < 0.01 µM (active) | < 0.01 µM (active) | 0.0149 µM (active) | 0.0398 µM (active) | < 0.01 µM (active) | < 0.0148 µM (active) | 0.0373 µM (active) | 0.0726 µM (active) | 0.0387 µM (active) |  |
| COc1cc(/C=N/n2c(-c3ccccc3)n[nH]c2=O)cc(OC)c1OC | 0.675 µM (active) | 3.22 µM (inactive) | 1.44 µM (inactive) | 2.13 µM (inactive) |  | 0.733 µM (active) | 0.815 µM (active) | 2.81 µM (inactive) | 22.4 µM (inactive) |  | 4.95 µM (inactive) | 1.1 µM (active) | 0.518 µM (active) | 0.174 µM (active) | 4.41 µM (inactive) | 11.4 µM (inactive) | 1.38 µM (inactive) | > 100 µM (inactive) | > 100 µM (inactive) |  |
| COc1ccc(C(=O)c2[nH]c(Nc3ccc(Cl)cc3)c(C(=S)Nc3ccccc3)c2N)cc1 | > 100 µM (inactive) | > 100 µM (inactive) | > 100 µM (inactive) | > 100 µM (inactive) | > 100 µM (inactive) | > 100 µM (inactive) | > 100 µM (inactive) |  | > 100 µM (inactive) | > 100 µM (inactive) | > 100 µM (inactive) | > 100 µM (inactive) | > 100 µM (inactive) | > 100 µM (inactive) | > 100 µM (inactive) | > 100 µM (inactive) |  | > 100 µM (inactive) | > 100 µM (inactive) | > 100 µM (inactive) |
| C/C=C1\CN(C(=O)OC(C)(C)C)C1C(=O)OC(C)(C)C (stereo not drawn) |  | > 100 µM (inactive) | > 100 µM (inactive) | > 100 µM (inactive) | > 100 µM (inactive) | > 100 µM (inactive) | > 100 µM (inactive) | > 100 µM (inactive) | > 100 µM (inactive) | > 100 µM (inactive) | > 100 µM (inactive) | > 100 µM (inactive) | 21.3 µM (inactive) | > 100 µM (inactive) | > 100 µM (inactive) | > 100 µM (inactive) | 68.7 µM (inactive) | > 100 µM (inactive) |  | > 100 µM (inactive) |
| COc1ccccc1NCC(=O)Nn1c(C)nc2ccc(S(=O)(=O)Nc3ccccc3OC)cc2c1=O | 35.6 µM (inactive) | > 100 µM (inactive) | > 100 µM (inactive) | > 100 µM (inactive) | 65.2 µM (inactive) | > 100 µM (inactive) |  | 88.5 µM (inactive) | > 100 µM (inactive) | > 100 µM (inactive) | 97.5 µM (inactive) | > 100 µM (inactive) | 47.1 µM (inactive) | 29.7 µM (inactive) | > 100 µM (inactive) | > 100 µM (inactive) | > 100 µM (inactive) | > 100 µM (inactive) |  | 36.5 µM (inactive) |
| O=C1NC(=O)C(CCC(=O)c2cccc3ccccc23)C(=O)N1 |  | > 100 µM (inactive) | > 100 µM (inactive) | > 100 µM (inactive) | > 100 µM (inactive) | > 100 µM (inactive) | > 100 µM (inactive) | > 100 µM (inactive) | > 100 µM (inactive) | > 100 µM (inactive) | > 100 µM (inactive) | > 100 µM (inactive) | > 100 µM (inactive) | > 100 µM (inactive) | > 100 µM (inactive) |  | 48.8 µM (inactive) | > 100 µM (inactive) | > 100 µM (inactive) | 85.3 µM (inactive) |
| O=S(=O)(c1ccc(Br)cc1)n1c2ccc(Br)cc2c2nc3ccccc3nc21 | > 100 µM (inactive) | > 100 µM (inactive) | > 100 µM (inactive) | > 100 µM (inactive) | > 100 µM (inactive) | > 100 µM (inactive) | > 100 µM (inactive) | > 100 µM (inactive) | > 100 µM (inactive) | > 100 µM (inactive) | > 100 µM (inactive) | > 100 µM (inactive) |  | > 100 µM (inactive) | > 100 µM (inactive) | > 100 µM (inactive) | > 100 µM (inactive) | > 100 µM (inactive) | 61.8 µM (inactive) |  |
| NCCc1ccc2c(c1)C(=O)c1c(O)ccc(O)c1C2=O |  | 4.11 µM (inactive) | 3.93 µM (inactive) | 6.73 µM (inactive) | 3.95 µM (inactive) | 2.76 µM (inactive) | 0.843 µM (active) | 3.33 µM (inactive) | 5.06 µM (inactive) | 1.68 µM (inactive) | 3.56 µM (inactive) | 4.84 µM (inactive) | 2.17 µM (inactive) | 2.82 µM (inactive) | 3.5 µM (inactive) | 2.45 µM (inactive) | 4.14 µM (inactive) | 15.2 µM (inactive) | 3.37 µM (inactive) | 3.43 µM (inactive) |
| COC(=O)/C1=C/c2c([nH]c3ccccc23)/C(C(=O)OC)=C\c2c1[nH]c1ccccc21 [CAULERPIN] | 6.08 µM (inactive) | 18.7 µM (inactive) | > 50 µM (inactive) | 25.6 µM (inactive) | 34.4 µM (inactive) |  | 28.8 µM (inactive) |  | > 50 µM (inactive) | > 50 µM (inactive) | 33.3 µM (inactive) | 37.9 µM (inactive) |  | 15.5 µM (inactive) | 38.1 µM (inactive) | > 50 µM (inactive) |  | > 50 µM (inactive) | 20.2 µM (inactive) |  |
| Cc1ccc(N/C(SCc2ccccc2)=C(\C(Cl)=C(Cl)Cl)[N+](=O)[O-])c(C)c1 |  |  | 21.2 µM (inactive) | 19.2 µM (inactive) | 15.6 µM (inactive) | > 100 µM (inactive) |  | 37.2 µM (inactive) | 19.6 µM (inactive) | 17.8 µM (inactive) | 27.1 µM (inactive) | 18.6 µM (inactive) |  | 22.2 µM (inactive) | 19.5 µM (inactive) | 33.4 µM (inactive) | 21.1 µM (inactive) | 43.9 µM (inactive) | 18.1 µM (inactive) |  |
| C=C(C)C1Cc2c(cc3c(c2O)c(=O)c2ccccc2n3C)O1 (stereo not drawn) |  |  | 2.3 µM (inactive) | 1.72 µM (inactive) | 1.81 µM (inactive) | 0.372 µM (active) | 2.38 µM (inactive) | 5.71 µM (inactive) | 13.3 µM (inactive) | 5.75 µM (inactive) | 6.62 µM (inactive) | 2.99 µM (inactive) | 2.77 µM (inactive) | 3.2 µM (inactive) | 2.36 µM (inactive) | 17.5 µM (inactive) | 2.06 µM (inactive) | 15.8 µM (inactive) | 6.67 µM (inactive) | 1.16 µM (inactive) |
| CC12CC(c3ccccc3O1)C(C(=O)Nc1nccs1)C(=O)N2 (stereo not drawn) | > 100 µM (inactive) | > 100 µM (inactive) | > 100 µM (inactive) | > 100 µM (inactive) | > 100 µM (inactive) | > 100 µM (inactive) | > 100 µM (inactive) | > 100 µM (inactive) | > 100 µM (inactive) | > 100 µM (inactive) | > 100 µM (inactive) | > 100 µM (inactive) | > 100 µM (inactive) | > 100 µM (inactive) | > 100 µM (inactive) | 35.7 µM (inactive) | 98.4 µM (inactive) | > 100 µM (inactive) |  |  |
| COc1ccn(CC(=O)c2cc3ccccc3[nH]2)c(=O)n1 | > 100 µM (inactive) | > 100 µM (inactive) | > 100 µM (inactive) | > 100 µM (inactive) | > 100 µM (inactive) | > 100 µM (inactive) | > 100 µM (inactive) | > 100 µM (inactive) | > 100 µM (inactive) | > 100 µM (inactive) | > 100 µM (inactive) | > 100 µM (inactive) | 39.2 µM (inactive) | > 100 µM (inactive) | > 100 µM (inactive) | > 100 µM (inactive) | > 100 µM (inactive) | > 100 µM (inactive) | > 100 µM (inactive) |  |
| Cc1cccc(Nc2cn(COCc3ccccc3)c(=O)[nH]c2=O)c1 | 10.2 µM (inactive) | 56.2 µM (inactive) | 14.4 µM (inactive) | 69.2 µM (inactive) | > 100 µM (inactive) | > 100 µM (inactive) | > 100 µM (inactive) | > 100 µM (inactive) | > 100 µM (inactive) | 84.1 µM (inactive) | > 100 µM (inactive) | > 100 µM (inactive) | > 100 µM (inactive) | > 100 µM (inactive) | > 100 µM (inactive) | 15.3 µM (inactive) | 38.8 µM (inactive) | > 100 µM (inactive) |  | > 100 µM (inactive) |
| COC(=O)c1c[nH]c2c1-c1cc(C(=O)OCc3ccccc3)n(S(=O)(=O)c3ccc(C)cc3)c1C(=O)C2=O | 0.207 µM (active) | 0.139 µM (active) | 0.45 µM (active) | 0.19 µM (active) | 0.214 µM (active) | 0.356 µM (active) | 0.132 µM (active) | 0.283 µM (active) | 1.56 µM (inactive) | 0.805 µM (active) | 0.716 µM (active) | 1.31 µM (inactive) | 0.144 µM (active) |  | 0.149 µM (active) | 0.173 µM (active) | 0.362 µM (active) | 0.156 µM (active) | 0.871 µM (active) | 0.262 µM (active) |
